The source of these data is patent US20240174596A1 (Northwestern University, priority 2021, published 2024).

Structures can show the parent of a compound that is named as a salt.

For series [1], the target named is T1, hOAT (Homo sapiens, UniProt P04181).
T1 construct: made in house; host or cells: E. coli BL21(DE3)
T1 sequence (P04181 26-439): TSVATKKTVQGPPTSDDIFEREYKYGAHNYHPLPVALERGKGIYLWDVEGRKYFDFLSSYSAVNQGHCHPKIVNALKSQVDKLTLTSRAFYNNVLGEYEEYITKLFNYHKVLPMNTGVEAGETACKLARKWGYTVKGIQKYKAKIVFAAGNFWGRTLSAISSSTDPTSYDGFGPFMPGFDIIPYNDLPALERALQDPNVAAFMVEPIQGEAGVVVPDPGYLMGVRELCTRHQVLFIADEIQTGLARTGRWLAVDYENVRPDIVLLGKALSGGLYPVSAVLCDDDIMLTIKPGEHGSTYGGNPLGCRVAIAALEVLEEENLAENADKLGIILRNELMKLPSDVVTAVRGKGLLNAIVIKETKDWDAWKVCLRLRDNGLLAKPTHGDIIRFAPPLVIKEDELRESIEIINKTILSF
As to the kind of experiment: Fluoride ion release assay. The format is biochemical. On the procedure:
The fluoride ion release assay was conducted using previous protocols.^10 The final concentration of enzyme in the sample was determined via BCA protein assay kit (Pierce, cat: 23225). A calibration curve of voltage (V, mV) was generated from varying concentrations of NaF (F, μM). For accurate detection of fluoride ion concentration, 10 μM of fluoride ion was added to each control and sample The number of fluoride ions released per active site was calculated by the ratio of the fluoride ion release concentration and enzyme concentration.

For series [2], the target named is T1, hOAT. Nature of the series: Transient state (stopped-flow) measurements of hOAT reacting with SS-1-148. The format is biochemical. The note with it: 10° C., pH 7.5. On the procedure: FIG. 6. Transient state absorption changes observed at 275, 420, and 560 nm for hOAT reacting with SS-1-148. OAT (12.7 μM final) was mixed with SS-1-148 (126, 251, 502, 1004, 2008, 4016 μM), and CCD spectra were collected for the timeframe 0.009-49.2 seconds. (A) The data observed at 420 nm fit to a linear combination of three exponential terms according to equation (3) described in the supporting information. The arrow indicates the trend observed in amplitude for increasing inhibitor concentration. (B) The observed rate constant dependence of the first phase observed at 420 nm fit to equation (5) described in the supporting information. The values for k2 and k3 indicated are the average values obtained from the fit in FIG. 5A. The fit is shown in red dashes. (C) The data observed at 560 nm. The curved arrow indicates the trend observed in amplitude for increasing inhibitor concentration. […] The fit is shown in red dashes. (D) The data observed at 275 nm over 2000 sec obtained in the presence of 8032 μM SS-1-148 fit to a linear combination of two exponential terms according to equation (4) in the supporting information. The fit is shown in red dashes.
FIG. 7. Partial deconvolution by singular value decomposition (SVD) of transient state absorption changes observed for hOAT reacting with SS-1-148. hOAT (6.94 μM; final concentration) was reacted in a stopped-flow spectrophotometer with SS-1-148 (1040 μM; final concentration) at 10° C. To obtain time resolution sufficient to analyze kinetic rates spanning four orders of magnitude, a composite CCD absorbance dataset was prepared spanning 250-800 nm and 0.0137-9843 sec by splicing together averaged short and long time-frame datasets. […] The species concentration profile based on the rate constants used to fit the dataset (B). A three-dimensional depiction of a subset of spectra from the dataset analyzed (C).
For each concentration of the inhibitor, CCD spectral datasets were collected in duplicate for 50 sec, and the duplicates were averaged For the highest concentration of inhibitor (8 mM) duplicate CCD datasets were acquired for two timeframes (0.0025-12.4 sec and 0.0025-2480 sec). Duplicate datasets for anyone timeframe were averaged and then spliced together at 12 sec to form one dataset with sufficient time resolution to adequately describe rapid and slow processes. […] In the process, the rate constants were fixed to the values measured using analytical fits to data extracted for single wavelengths that assume successive first-order processes according to the equations (3), (4), and (5). Abs is absorbance, Ax are the amplitudes associated with each observed phase, kx are the corresponding rate constants, and C is the absorbance endpoint.

Series [3] deals with T1, hOAT. Nature of the series: Denaturing intact protein mass spectrometry of inactivated hOAT. Particulars: hOAT fully inactivated; denaturing intact LC-MS. The source says:
The majority of hOAT remained unmodified (FIG. 5A, top) in comparison with native hOAT as a control (FIG. 5A, bottom). […] However, one would expect a higher abundance of covalently adducted enzyme under these conditions where the enzyme is fully inactivated. This finding thus supported a major non-covalent, inactivation mechansim between hOAT and SS-1-148.
Treated and unmodified purified hOAT samples were desalted ten times with Optima-grade water (Fisher) on Amicon Ultra 10 KDa molecular weight spin filters (Millipore). To chromatographically resolve protein. 0.5 μg of protein was loaded onto a 3 cm PLRP-S (Agilent) trap column using a Dionex Ultimate3000 liquid chromatography system (Thermo Fisher). The protein analyte was washed with a 10-min isocratic gradient of 10% Solvent B (95% acetonitrile/5% H2O/0.2% formic acid) and 90% Solvent A (5% acetonitrile/95% H20/0.2% formic acid). Protein was resolved on an in-house made 75 μm ID×15 cm long nanopore capillary column packed with PLRP-S resin (Agilent). […]

The next series is described as follows: Aqueous solubility. Particulars: aqueous medium (not further specified); HCl salt. The format is physicochemical.

`N[C@H]1C=C(C(=O)O)CC1(F)F` [SS-1-148, (S)-3-Amino-4,4-difluorocyclopent-1-enecarboxylic acid hydrochloric acid salt]: at hOAT [1], the “fluoride ion released per inactivation event” value is on record as 33.9±0.8 equivalents. The Fluoride ion release on hOAT [1] (without α-KG, triplicate, mean with standard deviation) was determined as 33.9 ± 0.8. In addition, on hOAT [2], the “rate constant of final phase (increase at ~275 nm)” value was 0.007 s⁻¹, the “rate dependence of second external aldimine formation (bimolecular reaction)” value is 6200 M⁻¹ s⁻¹, the “rate of accumulation of quinonoid species (~560 nm)” value worked out at 0.4 s⁻¹ and the “rate of quinonoid decay” value came out at 0.09 s⁻¹. Besides, the hOAT covalently modified at hOAT [3] is reported as about 16%. Besides, the solubility in “Aqueous solubility” was over 50 mM.
